Experimental data reported in patent US6410542B1, “Aminotetrazole derivatives useful as nitric oxide synthase inhibitors” (G. D. Searle & Co., priority 1994, dated 2002).
Where a name gives a salt, the structure may show the parent alone.

Key:
[1] = Physical properties on exposure to moisture in room air; format: physicochemical; details: normal room air
Text: It is also an advantage in that the compounds of the present invention have preferred physical properties as compared to compounds known in the art. […] In contrast, NIL, which is disclosed in WO 93/13055 when the hydrochloride salt can be isolated as a colorless crystal, but has the property of deliquescence. The compound quickly becomes a very viscous sticky oil upon exposure to moisture in normal room air which makes it difficult to handle.

[2] = target: Human inducible NOS (hiNOS) (Homo sapiens, UniProt P35228); assay: Citrulline assay for nitric oxide synthase, hiNOS; format: biochemical
Chain of Human inducible NOS (hiNOS) (P35228 whole entry): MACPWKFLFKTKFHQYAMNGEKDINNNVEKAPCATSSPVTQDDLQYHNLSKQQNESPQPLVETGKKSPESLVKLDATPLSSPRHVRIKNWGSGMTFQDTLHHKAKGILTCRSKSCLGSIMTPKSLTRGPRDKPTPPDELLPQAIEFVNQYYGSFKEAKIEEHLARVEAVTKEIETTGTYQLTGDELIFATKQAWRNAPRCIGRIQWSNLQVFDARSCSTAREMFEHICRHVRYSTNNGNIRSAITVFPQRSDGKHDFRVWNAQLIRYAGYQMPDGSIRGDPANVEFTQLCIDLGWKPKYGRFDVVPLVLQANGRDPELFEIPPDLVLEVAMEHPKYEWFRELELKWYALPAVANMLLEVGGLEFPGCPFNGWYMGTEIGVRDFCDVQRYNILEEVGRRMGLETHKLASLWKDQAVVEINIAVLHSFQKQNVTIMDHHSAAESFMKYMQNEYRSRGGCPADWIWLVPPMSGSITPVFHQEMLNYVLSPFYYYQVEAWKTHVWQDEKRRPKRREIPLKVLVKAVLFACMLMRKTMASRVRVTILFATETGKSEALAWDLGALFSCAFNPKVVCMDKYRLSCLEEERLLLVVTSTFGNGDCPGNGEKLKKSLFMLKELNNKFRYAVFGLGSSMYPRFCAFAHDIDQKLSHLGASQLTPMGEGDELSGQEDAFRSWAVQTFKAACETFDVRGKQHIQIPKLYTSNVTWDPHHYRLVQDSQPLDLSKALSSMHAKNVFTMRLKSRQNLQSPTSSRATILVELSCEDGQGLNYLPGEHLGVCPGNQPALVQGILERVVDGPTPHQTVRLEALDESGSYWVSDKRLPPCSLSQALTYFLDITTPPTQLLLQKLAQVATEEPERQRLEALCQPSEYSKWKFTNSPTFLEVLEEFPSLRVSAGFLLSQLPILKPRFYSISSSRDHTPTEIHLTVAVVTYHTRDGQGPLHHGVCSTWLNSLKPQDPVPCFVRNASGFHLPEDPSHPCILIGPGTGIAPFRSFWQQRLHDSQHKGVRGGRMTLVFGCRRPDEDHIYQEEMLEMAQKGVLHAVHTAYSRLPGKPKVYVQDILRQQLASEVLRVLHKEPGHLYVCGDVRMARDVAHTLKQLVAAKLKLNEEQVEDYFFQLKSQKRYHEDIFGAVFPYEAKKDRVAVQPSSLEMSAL
Protocol: Citrulline Assay for Nitric Oxide Synthase Nitric oxide synthase activity was measured by monitoring the conversion of L-[2,3-3H]-arginine to L-[2,3-3H]-citrulline (1,2). […] For constitutive NOS, calmodulin was included at a final concentration of 40-100 nM. Following incubation at 37° C. for 15 minutes, the reaction was terminated by addition of 300 μL cold buffer containing 10 mM EGTA, 100 mM HEPES (pH5.5) and 1.0 mM L-citrulline. The [3H]-citrulline was separated by chromatography on Dowex 50W X-8 cation exchange resin and radioactivity quantified with a liquid scintillation counter.

With CC(N)=NCCCC[C@@H](N)C(=O)O [NIL, reference compound] the “physical form / behaviour on exposure to moisture” value [1] was “deliquescence”.
In the case of CC(=N)NCCCC[C@H](N)C(=O)Nc1nnn[nH]1 [Example 1, 2S-amino-6-[(1-iminoethyl)amino]-N-(1H-tetrazol-5-yl) hexanamide, Hydrate, Dihydrochloride], the Selectivity ([2]; hiNOS over hecNOS) was 113, the “selectivity compared with NIL” value ([2]; in words) was “more selective than NIL” and the IC50 ([2]; recombinant enzyme, L-arginine to L-citrulline conversion, 37° C., 15 minutes) was 21.4 µM. The “physical form / behaviour on exposure to moisture” value [1] was “crystalline product”.
